Values joined by “and” are separate entries in the source; they are usually repeats but may differ in a detail not shown here. Equal entries are not always repeated.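 Following 48 hours of exposure in 96-well plates, responses at five concentrations were used to interpolate endpoints linearly. GI50 marks 50% less growth. TGI marks complete inhibition of growth.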
Tested on: MDA-MB-468 breast
Experiment: growth of human tumour cells (NCI), 48 h

SMILES	GI50	TGI
O=C(Nc1cccc(-n2cc(-c3ccncc3)c(-c3cc(O)cc(Cl)c3)n2)c1)Nc1ccc(Cl)c(Cl)c1	1.71 µM	7.09 µM
Clc1cccc(Cn2cc(Cc3cn(Cc4cccc(Cl)c4)c4ccccc34)c3ccccc32)c1	17 µM	37.3 µM
COc1cccc(C2=NN(C(C)=O)C(c3cc(OC)c(OC)c(OC)c3)C2)c1 (stereo not drawn)	1.01 µM	> 30.9 µM
CCOc1ccc(/C=N/Nc2cc(C)nc3ccc(Cl)cc23)cc1	1.73 µM	3.27 µM
CCCCN(CCCC)c1cc(C(=O)CCCCCN)c2ccccc2n1	1.43 µM	3.05 µM
CN(C)c1cc2c(Nc3ccc4nc(Cc5ccccc5)[nH]c4c3)ncnc2cn1	> 9.6 µM	> 25 µM
CCN1CCN(CCNc2nccc(-c3c(-c4cccc(O)c4)nc4sccn34)n2)S1(=O)=O	9.04 µM and 12.5 µM	32.5 µM and 36.6 µM
O=C(NNc1nc2cc(F)ccc2n2cccc12)c1ccncn1	0.293 µM	1.65 µM
O=[N+]([O-])c1ccc(Oc2cccnc2)c([N+](=O)[O-])c1	3.06 µM	13.8 µM
CCc1ccc(/C(C#N)=C/C=C/c2ccccc2)cc1	0.838 µM	9.87 µM
NCC(=O)Nc1ccc(-n2nc(C(F)(F)F)cc2-c2ccc3c(ccc4ccccc43)c2)cc1	1.56 µM	3.02 µM
O=C(Nc1cccnc1)c1cccs1	0.603 µM	> 100 µM
Cc1cc(N2CCOCC2)nc(N(CCNc2ccnc3cc(Cl)ccc23)Cc2ccco2)n1	2.09 µM	6.41 µM
O=C(/C=C/c1ccccc1O)c1ccccc1	6.06 µM	19.2 µM
COc1cc(-c2nn(C)nc2-c2cc3ccccc3s2)cc(OC)c1OC	0.0828 µM	> 100 µM
Cc1nc(NC(=O)COc2cccc(/C=C3\COc4ccccc4C3=O)c2)sc1C	1.76 µM	3.84 µM
COc1ccc(S(=O)(=O)Nc2cc(/C=C\c3cc(OC)c(OC)c(OC)c3)cc(OC)c2OC)cc1OC	0.269 µM	1.29 µM
O=C(O[C@H]1CN[C@H](C#Cc2cc3ncnc(Nc4ccc(Cc5ccccc5)cc4)c3s2)C1)N1CCOCC1	1.27 µM	6.37 µM
COc1ccc(Nc2nc(NCc3ccccc3)c3ccccc3n2)cc1	1.61 µM	3.37 µM
CN(C)c1cc2c(cc1Sc1nc3c(N)nccc3n1CCNCC(C)(C)C)OCO2	0.268 µM	0.888 µM
CNC(=O)c1cc(Oc2ccc3nc(NC(=O)c4cc(C(F)(F)F)cc(C(F)(F)F)c4)sc3c2)ccn1	3.18 µM	14.2 µM
O=Cc1ncc(-c2ccc(C(F)(F)F)cc2)c(NC2CCCCCC2)n1	> 10 µM	> 10 µM
Clc1ccc(-c2nc(-c3c[nH]c4ncccc34)cs2)cc1	> 100 µM	> 100 µM
O=S(=O)(c1ccc2c(c1)C(=NO)c1cc(S(=O)(=O)N3CCCCC3)ccc1-2)N1CCCCC1	0.237 µM and 0.137 µM	0.608 µM and 0.277 µM

Source: PubChem BioAssay (NCI)
